Laboratory results: patent US20230233569A1 (Revolution Medicines, Inc., priority 2020, published 2023)
Read-outs that look alike come from different tables or passages of the source.

Columns and labels:
Assay in all cases: Ras-Raf disruption / FRET / MOA assay (BRAF RBD)
Assay type in all cases: biochemical
[1] = biological target: KRAS G12C (Homo sapiens, UniProt P01116+P62937, G12C); conditions: with Cyclophilin A
Procedure, shortened: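 His6-K-Ras G12C-GMPPNP (12.5 nM), GST-BRAF RBD (50 nM) and tagless Cyclophilin A (25 μM) incubated 3 h at 25 °C with compound (10-point 3-fold series from 30 μM), pH 7.3 HEPES buffer. Anti-His Eu/anti-GST APC added for 1.5 h; decreased TR-FRET ratio vs DMSO gives IC50.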

[2] = biological target: KRAS G12S (Homo sapiens, UniProt P01116+P62937, G12S); conditions: with Cyclophilin A
Chain of KRAS G12S (P01116 1-169 isoform P01116-2 G12S limits assumed): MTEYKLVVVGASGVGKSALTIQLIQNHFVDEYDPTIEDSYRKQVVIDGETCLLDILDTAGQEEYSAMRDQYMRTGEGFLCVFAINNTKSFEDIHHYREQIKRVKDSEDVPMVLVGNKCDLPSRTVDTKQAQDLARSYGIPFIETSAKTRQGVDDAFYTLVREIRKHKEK
Chain of KRAS G12S (P62937 whole entry): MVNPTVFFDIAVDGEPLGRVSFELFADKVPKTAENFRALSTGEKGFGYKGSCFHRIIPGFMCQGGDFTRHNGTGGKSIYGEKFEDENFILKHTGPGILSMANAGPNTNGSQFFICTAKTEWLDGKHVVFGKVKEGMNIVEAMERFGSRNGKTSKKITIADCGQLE
Procedure, shortened: (§1)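 TR-FRET in 25 mM HEPES pH 7.3, 100 mM NaCl, 5 mM MgCl2, 0.1% BSA, 0.002% Tween20 with 25 μM Cyclophilin A, 12.5 nM His6-Ras-GMPPNP, 50 nM GST-BRAF RBD; compound 10-point 3-fold series from 30 μM. After 3 h at 25 °C, Eu anti-His/APC anti-GST added for 1.5 h; IC50 from ratio decrease versus DMSO.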

[3] = biological target: NRAS Q61K (Homo sapiens, UniProt P01111+P62937, Q61K)
Chain of NRAS Q61K (P01111 whole entry Q61K): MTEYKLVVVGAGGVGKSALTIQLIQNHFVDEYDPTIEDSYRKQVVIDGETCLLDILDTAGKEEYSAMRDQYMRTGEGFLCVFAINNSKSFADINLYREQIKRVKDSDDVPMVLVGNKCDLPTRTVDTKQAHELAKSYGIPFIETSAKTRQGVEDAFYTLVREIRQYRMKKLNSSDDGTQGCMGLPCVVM
Chain of NRAS Q61K (P62937 whole entry): as the sequence (P62937 whole entry) above
Procedure, shortened: as §1

[4] = biological target: NRAS WT (Homo sapiens, UniProt P01111+P62937)
Chain of NRAS WT (P01111 whole entry): as the sequence (P01111 whole entry Q61K) above, with K61Q counted along it
Chain of NRAS WT (P62937 whole entry): as the sequence (P62937 whole entry) above
Procedure, shortened: as §1

[5] = biological target: NRAS G12C (Homo sapiens, UniProt P01111+P62937, G12C)
Chain of NRAS G12C (P01111 whole entry G12C): as the sequence (P01111 whole entry Q61K) above, with G12C, K61Q counted along it
Chain of NRAS G12C (P62937 whole entry): as the sequence (P62937 whole entry) above
Procedure, shortened: as §1

[6] = biological target: KRAS G13D (Homo sapiens, UniProt P01116+P62937, G13D); conditions: with Cyclophilin A
Chain of KRAS G13D (P01116 1-169 isoform P01116-2 G13D limits assumed): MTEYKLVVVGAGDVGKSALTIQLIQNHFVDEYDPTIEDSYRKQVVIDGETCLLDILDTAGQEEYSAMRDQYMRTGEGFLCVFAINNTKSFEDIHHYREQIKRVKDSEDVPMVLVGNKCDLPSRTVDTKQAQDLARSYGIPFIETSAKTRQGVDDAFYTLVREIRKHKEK
Chain of KRAS G13D (P62937 whole entry): as the sequence (P62937 whole entry) above
Procedure, shortened: as §1

[7] = biological target: KRAS WT (Homo sapiens, UniProt P01116+P62937); conditions: with Cyclophilin A
Chain of KRAS WT (P01116 1-169 isoform P01116-2 limits assumed): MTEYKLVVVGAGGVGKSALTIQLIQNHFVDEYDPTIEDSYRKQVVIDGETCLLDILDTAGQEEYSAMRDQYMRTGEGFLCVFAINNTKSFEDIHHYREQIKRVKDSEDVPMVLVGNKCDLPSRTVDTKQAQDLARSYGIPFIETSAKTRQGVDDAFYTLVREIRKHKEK
Chain of KRAS WT (P62937 whole entry): as the sequence (P62937 whole entry) above
Procedure, shortened: as §1

[8] = biological target: KRAS G12D (Homo sapiens, UniProt P01116+P62937, G12D); conditions: with Cyclophilin A
Chain of KRAS G12D (P01116 1-169 isoform P01116-2 G12D limits assumed): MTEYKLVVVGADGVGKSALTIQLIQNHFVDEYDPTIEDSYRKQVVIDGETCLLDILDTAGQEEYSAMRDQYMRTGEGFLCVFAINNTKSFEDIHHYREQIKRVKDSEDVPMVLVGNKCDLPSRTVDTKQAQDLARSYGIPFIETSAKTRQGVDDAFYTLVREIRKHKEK
Chain of KRAS G12D (P62937 whole entry): as the sequence (P62937 whole entry) above
Procedure, shortened: as §1

[9] = biological target: KRAS Q61H (Homo sapiens, UniProt P01116+P62937, Q61H)
Chain of KRAS Q61H (P01116 1-169 isoform P01116-2 Q61H limits assumed): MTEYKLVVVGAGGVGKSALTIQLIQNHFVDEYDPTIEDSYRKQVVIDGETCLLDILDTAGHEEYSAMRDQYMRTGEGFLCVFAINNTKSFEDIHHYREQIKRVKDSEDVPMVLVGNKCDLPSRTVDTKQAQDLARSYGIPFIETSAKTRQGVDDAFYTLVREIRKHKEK
Chain of KRAS Q61H (P62937 whole entry): as the sequence (P62937 whole entry) above
Procedure, shortened: as §1

[10] = biological target: NRAS Q61R (Homo sapiens, UniProt P01111+P62937, Q61R)
Chain of NRAS Q61R (P01111 whole entry Q61R): as the sequence (P01111 whole entry Q61K) above, with K61R counted along it
Chain of NRAS Q61R (P62937 whole entry): as the sequence (P62937 whole entry) above
Procedure, shortened: as §1

[11] = biological target: KRAS G12V (Homo sapiens, UniProt P01116+P62937, G12V); conditions: with Cyclophilin A
Chain of KRAS G12V (P01116 1-169 isoform P01116-2 G12V limits assumed): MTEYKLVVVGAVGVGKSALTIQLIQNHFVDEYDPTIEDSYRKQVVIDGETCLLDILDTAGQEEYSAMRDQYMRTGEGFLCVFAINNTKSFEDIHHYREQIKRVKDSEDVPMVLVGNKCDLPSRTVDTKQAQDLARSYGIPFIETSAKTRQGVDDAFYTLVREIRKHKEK
Chain of KRAS G12V (P62937 whole entry): as the sequence (P62937 whole entry) above
Procedure, shortened: as §1

[12] = biological target: KRAS G13C (Homo sapiens, UniProt P01116+P62937, G13C); conditions: with Cyclophilin A
Chain of KRAS G13C (P01116 1-169 isoform P01116-2 G13C limits assumed): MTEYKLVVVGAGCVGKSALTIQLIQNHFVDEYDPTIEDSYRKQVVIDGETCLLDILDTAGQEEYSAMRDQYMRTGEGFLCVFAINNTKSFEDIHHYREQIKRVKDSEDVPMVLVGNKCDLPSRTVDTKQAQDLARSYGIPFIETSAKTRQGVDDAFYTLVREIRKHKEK
Chain of KRAS G13C (P62937 whole entry): as the sequence (P62937 whole entry) above
Procedure, shortened: as §1

[13] = Ras-Raf disruption, read-out: KRAS G12C FRET data IC50
[14] = Ras-Raf disruption, read-out: KRAS G12S FRET data IC50
[15] = NRAS Q61K, read-out: NRAS Q61K FRET data IC50
[16] = NRAS WT, read-out: NRAS WT FRET data IC50
[17] = NRAS G12C, read-out: NRAS G12C FRET data IC50
[18] = Ras-Raf disruption, read-out: KRAS G13D FRET data IC50
[19] = Ras-Raf disruption, read-out: KRAS WT FRET data IC50
[20] = Ras-Raf disruption, read-out: KRAS G12D FRET data IC50
[21] = KRAS Q61H, read-out: KRAS Q61H FRET data IC50
[22] = NRAS Q61R, read-out: NRAS Q61R FRET data IC50
[23] = Ras-Raf disruption, read-out: KRAS G12V FRET data IC50
[24] = Ras-Raf disruption, read-out: KRAS G13C FRET data IC50

Chain of KRAS G12C (P01116 1-169 isoform P01116-2 G12C limits assumed): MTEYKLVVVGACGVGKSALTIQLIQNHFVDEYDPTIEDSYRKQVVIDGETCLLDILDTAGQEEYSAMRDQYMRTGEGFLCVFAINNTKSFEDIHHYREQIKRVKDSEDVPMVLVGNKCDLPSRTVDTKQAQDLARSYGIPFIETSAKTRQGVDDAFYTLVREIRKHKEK
Chain of KRAS G12C (P62937 whole entry): as the sequence (P62937 whole entry) above

In the case of CCn1c(-c2cccnc2[C@H](C)OC)c2c3cc(ccc31)-c1cc(O)cc(c1)C[C@H](NC(=O)[C@H](C(C)C)N(C)C(=O)N(C)C1CN(C(=O)[C@H]3CN3)C1)C(=O)N1CCC[C@H](N1)C(=O)OCC(C)(C)C2 (atropisomer, axis not shown) [Example 203], the IC50 [1, 13] is reported as under 10 nM, the IC50 [2, 14] is reported as 100 to 1000 nM and the IC50 [3, 15] is reported as 100 to 1000 nM. For the same compound, the IC50 [4, 16] was 100 to 1000 nM, the IC50 [5, 17] was under 10 nM and the IC50 [6, 18] was 100 to 1000 nM. For the same compound, the IC50 [7, 19] was 100 to 1000 nM, the IC50 [8, 20] was 100 to 1000 nM and the IC50 [9, 21] was 10 to 100 nM. For the same compound, the IC50 [10, 22] was 100 to 1000 nM, the IC50 [11, 23] was 100 to 1000 nM and the IC50 [12, 24] was 10 to 100 nM.
CCOC(=O)[C@H]1O[C@@H]1C(=O)N1CC[C@H](C(=O)N(C)[C@H](C(=O)N[C@H]2Cc3cc(O)cc(c3)-c3ccc4c(c3)c(c(-c3cccnc3[C@H](C)OC)n4CC)CC(C)(C)COC(=O)[C@@H]3CCCN(N3)C2=O)C(C)C)C1 [Example 329] was tested, and the IC50 [1, 13] was under 10 nM, the IC50 [2, 14] was 10 to 100 nM and the IC50 [3, 15] was 10 to 100 nM. For the same compound, the IC50 [4, 16] was 10 to 100 nM, the IC50 [5, 17] was under 10 nM and the IC50 [6, 18] was 10 to 100 nM. For the same compound, the IC50 [7, 19] was 10 to 100 nM, the IC50 [8, 20] was 100 to 1000 nM and the IC50 [9, 21] was 10 to 100 nM. It also gave an IC50 [10, 22] of 10 to 100 nM, an IC50 [11, 23] of 10 to 100 nM and an IC50 [12, 24] of under 10 nM.
CCn1c(-c2cccnc2[C@H](C)OC)c2c3cc(ccc31)-c1cc(O)cc(c1)C[C@H](NC(=O)[C@H](C(C)C)N(C)C(=O)CN(C)S(=O)(=O)[C@@H]1CN1C)C(=O)N1CCC[C@H](N1)C(=O)OCC(C)(C)C2 (single isomer, unassigned) [Example 92] showed an IC50 [1, 13] of 10 to 100 nM, an IC50 [2, 14] of 10 to 100 nM and an IC50 [3, 15] of 100 to 1000 nM. The IC50 [4, 16] was 10 to 100 nM, the IC50 [5, 17] was 10 to 100 nM and the IC50 [6, 18] was 100 to 1000 nM. For the same compound, the IC50 [7, 19] was 10 to 100 nM, the IC50 [8, 20] was 100 to 1000 nM and the IC50 [9, 21] was 10 to 100 nM. The IC50 [10, 22] was 100 to 1000 nM, the IC50 [11, 23] was 100 to 1000 nM and the IC50 [12, 24] was 10 to 100 nM.
Compound CCn1c(-c2cccnc2[C@H](C)OC)c2c3cc(ccc31)-c1cc(O)cc(c1)C[C@H](NC(=O)[C@H](C1CCCC1)N(C)C(=O)CN(C)C(=O)[C@H]1N[C@H]1C1(OC)CC1)C(=O)N1CCC[C@H](N1)C(=O)OCC(C)(C)C2 (single isomer, unassigned) [Example 322] has an IC50 ([1]; KRAS G12C FRET data IC50, Ras-Raf disruption) of 10 to 100 nM, an IC50 ([2]; KRAS G12S FRET data IC50, Ras-Raf disruption) of 10 to 100 nM and an IC50 [3] of 100 to 1000 nM. For the same compound, the IC50 [4] was 10 to 100 nM, the IC50 ([5]; NRAS G12C FRET data IC50, NRAS G12C) was 10 to 100 nM and the IC50 ([6]; KRAS G13D FRET data IC50, Ras-Raf disruption) was 100 to 1000 nM. It also gave an IC50 ([7]; KRAS WT FRET data IC50, Ras-Raf disruption) of 10 to 100 nM, an IC50 ([8]; KRAS G12D FRET data IC50, Ras-Raf disruption) of 100 to 1000 nM and an IC50 [9] of 10 to 100 nM. The IC50 [10] was 100 to 1000 nM, the IC50 ([11]; KRAS G12V FRET data IC50, Ras-Raf disruption) was 10 to 100 nM and the IC50 ([12]; KRAS G13C FRET data IC50, Ras-Raf disruption) was 10 to 100 nM.
CCn1c(-c2cccnc2[C@H](C)OC)c2c3cc(ccc31)-c1cc(O)cc(c1)C[C@H](NC(=O)[C@@H](COC1CN(C(=O)[C@H]3CN3)C1)C(C)C)C(=O)N1CCC[C@H](N1)C(=O)OCC(C)(C)C2 [Example 312] showed an IC50 [1, 13] of under 10 nM, an IC50 [2, 14] of 1000 to 10000 nM and an IC50 [3, 15] of 1000 to 10000 nM. The IC50 [4, 16] was 100 to 1000 nM, the IC50 [5, 17] was under 10 nM and the IC50 [6, 18] was 1000 to 10000 nM. The IC50 [7, 19] was 100 to 1000 nM, the IC50 [8, 20] was 1000 to 10000 nM and the IC50 [9, 21] was 100 to 1000 nM. It also gave an IC50 [10, 22] of 1000 to 10000 nM, an IC50 [11, 23] of 1000 to 10000 nM and an IC50 [12, 24] of 100 to 1000 nM.
Work on CCn1c(-c2cccnc2[C@H](C)OC)c2c3cc(ccc31)-c1csc(n1)C[C@H](NC(=O)[C@H](C(C)C)N(C)C(=O)N1CCN(C(=O)[C@H]3CN3)[C@@H](C)C1)C(=O)N1CCC[C@H](N1)C(=O)OCC(C)(C)C2 [Example 297] yielded an IC50 [1, 13] of 10 to 100 nM, an IC50 [2, 14] of 100 to 1000 nM and an IC50 [3, 15] of 10 to 100 nM. For the same compound, the IC50 [4, 16] was 10 to 100 nM, the IC50 [5, 17] was 10 to 100 nM and the IC50 [6, 18] was 100 to 1000 nM. The IC50 [7, 19] was 10 to 100 nM, the IC50 [8, 20] was 100 to 1000 nM and the IC50 [9, 21] was 10 to 100 nM. For the same compound, the IC50 [10, 22] was 10 to 100 nM, the IC50 [11, 23] was 100 to 1000 nM and the IC50 [12, 24] was 10 to 100 nM.
